# Where two headings read alike, the source gives them in different places.
# Test: Pharmacokinetic evaluation following a single oral and intravenous administration
# Assay type: in vivo, CD1 mouse
# Conditions: CD1, mouse, plasma; for C0 / AUC(0-inf) / AUC(0-t) / MRT inf / half-life / Vd: Table 4, IV Dose: 1 mg/kg
# Method: A NMP stock solution was prepared by adding 1.136 mL of NMP to 5.68 mg of compound no. 42140 with vortexing and sonification, to obtain a solution with a concentration at 5 mg/mL of 42140:01. Next, to prepare an intravenous formulation, 0.100 mL of the 5 mg/mL stock solution was placed in a new vial. 0.100 mL of NMP and 0.400 mL of PEG400 were added with vortexing and sonification, followed by addition of 0.400 mL of saline with vortexing and sonification. […] 42140:01. Alternatively, to prepare an oral formulation, 0.200 mL of the 5 mg/mL stock solution was placed in a new vial. 0.400 mL of PEG400 was added with vortexing and sonification, followed by addition of 0.400 mL of saline with vortexing and sonifiction. […] 42140:01.
# (§1) Briefly, the desired serial concentrations of working solutions were achieved by diluting a stock solution of the compound with 100% acetonitrile. 3 μL of working solutions (5, 10, 20, 50, 100, 500, 1000, 5000, 10000 ng/mL) were added to 30 μL of the blank CD1 mouse plasma to achieve calibration standards of 0.5-1000 ng/mL (0.5, 1, 2, 5, 10, 50, 100, 500, 1000 ng/mL) in a total volume of 33 μL. Five quality control samples at 1 ng/mL, 2 ng/mL, 5 ng/mL, 50 ng/mL and 800 ng/mL for plasma were prepared independently of those used for the calibration curves. These QC samples were prepared on the day of analysis in the same way as calibration standards.
# Next, 33 μL standards, 33 μL QC samples, and 33 μL unknown samples (30 μL plasma with 3 μL blank solution) were added to 200 μL of acetonitrile containing IS mixture for precipitating protein, respectively. Then the samples were vortexed for 30 s. After centrifugation at 4 degree Celsius, 4000 rpm for 15 min, 3 μL of supernatant was injected into the LC/MS/MS system for quantitative analysis.
# HPLC analysis was performed using 100% water with 0.1% formic acid (Solution A) and 100% acetonitrile with 0.1% formic acid (Solution B) with a flow rate of 0.6 mL/min.
# A NMP stock solution was prepared by adding 2.092 mL of NMP to 10.46 mg of […] with vortexing and sonification, to obtain a solution with a concentration at 5 mg/mL of […]. Next, to prepare an intravenous formulation, 0.100 mL of the 5 mg/mL stock solution was placed in a new vial. 0.100 mL of NMP and 0.400 mL of PEG400 were added with vortexing and sonification, followed by addition of 0.400 mL of saline with vortexing and sonification. […] 42320:01. Alternatively, to prepare an oral formulation, 0.200 mL of the 5 mg/mL stock solution was placed in a new vial. 0.400 mL of PEG400 was added with vortexing and sonification, followed by addition of 0.400 mL of saline with vortexing and sonifiction. […] 42320:01.
# as §1, with “50 ng/mL,” for “50 ng/mL”
# [1] = iv, 1 mg/kg, Table 3, IV Dose: 1 mg/kg, Mouse 1, read-out: Concentration
# [2] = iv, 1 mg/kg, Table 3, IV Dose: 1 mg/kg, Mouse 2, read-out: Concentration
# [3] = iv, 1 mg/kg, Table 3, IV Dose: 1 mg/kg, Mouse 3, read-out: Concentration
# [4] = iv, 1 mg/kg, Table 3, IV Dose: 1 mg/kg, mean, read-out: Concentration, Mean
# [5] = po, 5 mg/kg, Table 5, PO Dose: 5 mg/kg, Mouse 4, read-out: Concentration
# [6] = po, 5 mg/kg, Table 5, PO Dose: 5 mg/kg, Mouse 5, read-out: Concentration
# [7] = po, 5 mg/kg, Table 5, PO Dose: 5 mg/kg, Mouse 6, read-out: Concentration
# [8] = po, 5 mg/kg, Table 5, PO Dose: 5 mg/kg, mean, read-out: Concentration, Mean
smiles,measurement,setting,value
"CNCc1ccc(C[C@H](NC(C)=O)c2nnc(-c3cccc(OC(F)(F)F)c3)s2)cc1 [Compound 42140, N-(2-(4-((methylamino)methyl)phenyl)-1-(5-(3-(trifluoromethoxy)phenyl)-1,3,4-thiadiazol-2-yl)ethyl)acetamide]",concentration at 5 min,[1],96.6 ng/mL
same,concentration at 5 min,[2],89.5 ng/mL
same,concentration at 5 min,[3],86.3 ng/mL
same,concentration at 5 min,[4],90.8 ng/mL
same,concentration at 0.25 h,[1],81.5 ng/mL
same,concentration at 0.25 h,[2],65 ng/mL
same,concentration at 0.25 h,[3],74.2 ng/mL
same,concentration at 0.25 h,[4],73.6 ng/mL
same,concentration at 0.5 h,[1],57.2 ng/mL
same,concentration at 0.5 h,[2],53.8 ng/mL
same,concentration at 0.5 h,[3],48.1 ng/mL
same,concentration at 0.5 h,[4],53 ng/mL
same,concentration at 1 h,[1],57.8 ng/mL
same,concentration at 1 h,[2],42.1 ng/mL
same,concentration at 1 h,[3],43.7 ng/mL
same,concentration at 1 h,[4],47.9 ng/mL
same,concentration at 2 h,[1],43.7 ng/mL
same,concentration at 2 h,[2],34.1 ng/mL
same,concentration at 2 h,[3],39.9 ng/mL
same,concentration at 2 h,[4],39.2 ng/mL
same,concentration at 4 h,[1],26.1 ng/mL
same,concentration at 4 h,[2],18.8 ng/mL
same,concentration at 4 h,[3],23.3 ng/mL
same,concentration at 4 h,[4],22.7 ng/mL
same,concentration at 8 h,[1],16.9 ng/mL
same,concentration at 8 h,[2],15.5 ng/mL
same,concentration at 8 h,[3],14.9 ng/mL
same,concentration at 8 h,[4],15.8 ng/mL
same,concentration at 24 h,[1],6.4 ng/mL
same,concentration at 24 h,[2],5.76 ng/mL
same,concentration at 24 h,[3],4.27 ng/mL
same,concentration at 24 h,[4],5.48 ng/mL
same,C0,"iv, 1 mg/kg, Mouse 1",105 ng/mL
same,AUC(0-inf),"iv, 1 mg/kg, Mouse 1, read-out: AUCInf",557 ng·h/mL
same,AUC(0-t),"iv, 1 mg/kg, Mouse 1, read-out: AUClast",462 ng·h/mL
same,MRT inf,"iv, 1 mg/kg, Mouse 1, read-out: MRTInf—obs",12.1 h
same,half-life,"iv, 1 mg/kg, Mouse 1, read-out: T1/2 (converted)",10.3 h
same,Vd,"iv, 1 mg/kg, Mouse 1, read-out: Vss—obs",21.8 L/kg
same,C0,"iv, 1 mg/kg, Mouse 2",105 ng/mL
same,AUC(0-inf),"iv, 1 mg/kg, Mouse 2, read-out: AUCInf",486 ng·h/mL
same,AUC(0-t),"iv, 1 mg/kg, Mouse 2, read-out: AUClast",389 ng·h/mL
same,MRT inf,"iv, 1 mg/kg, Mouse 2, read-out: MRTInf—obs",13.7 h
same,half-life,"iv, 1 mg/kg, Mouse 2, read-out: T1/2 (converted)",11.6 h
same,Vd,"iv, 1 mg/kg, Mouse 2, read-out: Vss—obs",28.1 L/kg
same,C0,"iv, 1 mg/kg, Mouse 3",93 ng/mL
same,AUC(0-inf),"iv, 1 mg/kg, Mouse 3, read-out: AUCInf",445 ng·h/mL
same,AUC(0-t),"iv, 1 mg/kg, Mouse 3, read-out: AUClast",394 ng·h/mL
same,MRT inf,"iv, 1 mg/kg, Mouse 3, read-out: MRTInf—obs",9.69 h
same,half-life,"iv, 1 mg/kg, Mouse 3, read-out: T1/2 (converted)",8.36 h
same,Vd,"iv, 1 mg/kg, Mouse 3, read-out: Vss—obs",21.8 L/kg
same,AUC(0-inf),"iv, 1 mg/kg, mean, read-out: AUCInf, Mean",496 ng·h/mL
same,AUC(0-t),"iv, 1 mg/kg, mean, read-out: AUClast, Mean",415 ng·h/mL
same,MRT inf,"iv, 1 mg/kg, mean, read-out: MRTInf—obs, Mean",11.8 h
same,half-life,"iv, 1 mg/kg, mean, read-out: T1/2, Mean (converted)",10.1 h
same,Vd,"iv, 1 mg/kg, mean, read-out: Vss—obs, Mean",23.9 L/kg
same,concentration at 0.25 h,[5],54.5 ng/mL
same,concentration at 0.25 h,[6],60.6 ng/mL
same,concentration at 0.25 h,[7],73.1 ng/mL
same,concentration at 0.25 h,[8],62.7 ng/mL
same,concentration at 0.5 h,[5],92.2 ng/mL
same,concentration at 0.5 h,[6],91.9 ng/mL
same,concentration at 0.5 h,[7],106 ng/mL
same,concentration at 0.5 h,[8],97 ng/mL
same,concentration at 1 h,[5],117 ng/mL

# From patent US11033535B2, “Oxadiazoles and thiadiazoles as TGF-β inhibitors” (Southern Research Institute, priority 2017, dated 2021)
